Reference: PMC5357725, “Global update on the susceptibility of human influenza viruses to neuraminidase inhibitors, 2014–2015” (Antiviral Research, 2016)

What was measured:
[1] = test system: A(H1N1)pdm09 neuraminidase (NA); assay type: biochemical, influenza A(H1N1)pdm09 virus
[2] = biological target: B/Victoria-lineage neuraminidase (NA); assay type: biochemical, influenza B/Victoria-lineage virus

Structure (SMILES): [H]/N=C(\N)N[C@H]1C=C(C(=O)O)O[C@@H]([C@H](OC)[C@H](O)CO)[C@@H]1NC(C)=O [Laninamivir, laninamivir]
- inhibition class (NI, RI, HRI) [1]: NI (key: normal inhibition (NI) (A viruses <10-fold; reduced inhibition (RI) (A viruses 10- to 100-fold; highly reduced inhibition (HRI) (A viruses >100-fold)

Structure (SMILES): CCC(CC)[C@H](NC(C)=O)[C@@H]1[C@H](O)[C@@H](C(=O)O)C[C@H]1N=C(N)N [Peramivir, peramivir]
- IC50 values fold higher than the median [2]: 8- to 14 fold
